Laboratory results as given in patent US11174250B2, “Substituted carboxamides as inhibitors of WDR5 protein-protein binding” (PROPELLON THERAPEUTICS INC., priority 2016, dated 2021).
Read-outs that look alike come from different tables or passages of the source.

Columns and labels:
WDR5 protein = WDR5 protein (Homo sapiens (Human), UniProt P61964); assay: Surface Plasmon Resonance (SPR) assay; assay type: binding; conditions: SPR; for residence time: τ=1/koff, read-out: Residence Time (t, min)
MLL1-WRAD2 complex = MLL1-WRAD2 complex (Homo sapiens (Human), UniProt P61964); assay: MLL1-WRAD2 enzyme assay (in vitro methyl transferase assay); assay type: biochemical; conditions: MLL1-WRAD2 assay; read-out: In vitro MLL1 activity (IC50)
Description: Reaction was initiated with 1 μM 3H-SAM and incubated for 1 hour at 30° C. Reaction mixture was transferred to P81 filter-paper and washed with PBS before detection.

[1] = Table 1, read-out: WDR5 binding affinity (KD)
[2] = Table 2, read-out: WDR5 binding affinity SPR (KD)

Row | Compound | Kd (WDR5 protein; [1]) [nM] | Kd (WDR5 protein; [2]) [nM] | residence time (WDR5 protein) [min] | IC50 (MLL1-WRAD2 complex) [nM]
1 | Cc1cc(C(=O)Nc2cc(-c3cc(CN4CCOCC4)ccc3F)ccc2N2CCN(C)CC2)cc(C(F)(F)F)c1F [Example 41, 4-fluoro-N-(2′-fluoro-4-(4-methylpiperazin-1-yl)-5′-(morpholinomethyl)-[1,1′-biphenyl]-3-yl)-3-methyl-5-(trifluoromethyl)benzamide] | 55 | 55 | 0.77 | > 30000
2 | CN1CCN(c2ccc(-c3cc(CN4CCOCC4)ccc3F)c(F)c2NC(=O)c2c[nH]c(=O)cc2C(F)(F)F)CC1 [Example 99, N-(2,2′-difluoro-4-(4-methylpiperazin-1-yl)-5′-(morpholinomethyl)-[1,1′-biphenyl]-3-yl)-6-oxo-4-(trifluoromethyl)-1,6-dihydropyridine-3-carboxamide] | 14 | 14 | 2.2 | 3980
3 | CN(C)Cc1ccc(F)c(-c2ccc(N3CCN(C)CC3)c(NC(=O)c3c[nH]c(=O)cc3C(F)(F)F)c2)c1 [Example 40, N-(5′-((dimethylamino)methyl)-2′-fluoro-4-(4-methylpiperazin-1-yl)-[1,1′-biphenyl]-3-yl)-6-oxo-4-(trifluoromethyl)-1,6-dihydropyridine-3-carboxamide] | 9 | 9 | 2.52 | 6290
4 | CN1CCN(c2ccc(-c3ccc(CNC4CCCCC4)cc3F)cc2NC(=O)c2c[nH]c(=O)cc2C(F)(F)F)CC1 [Example 34, N-(4′-((cyclohexylamino)methyl)-2′-fluoro-4-(4-methylpiperazin-1-yl)-[1,1′-biphenyl]-3-yl)-6-oxo-4-(trifluoromethyl)-1,6-dihydropyridine-3-carboxamide] | 21 | 21 | 0.26 | 13700
5 | C[C@@H]1CN(c2ccc(-c3cc(C(=O)N(C)C4CCCCC4)ccc3F)cc2NC(=O)c2c[nH]c(=O)cc2C(F)(F)F)C[C@H](C)N1C [Example 111, N-(5′-(cyclohexyl(methyl)carbamoyl)-2′-fluoro-4-((3S,5R)-3,4,5-trimethylpiperazin-1-yl)-[1,1′-biphenyl]-3-yl)-6-oxo-4-(trifluoromethyl)-1,6-dihydropyridine-3-carboxamide] | 2.4 | 24 | 34 | 203
6 | CN1CCN(c2ccc(-c3cc(C(=O)N(C)C4CCCCC4)ccc3F)cc2NC(=O)c2c[nH]c(=O)cc2C(F)(F)F)CC1 [Example 110, N-(5′-(cyclohexyl(methyl)carbamoyl)-2′-fluoro-4-(4-methylpiperazin-1-yl)-[1,1′-biphenyl]-3-yl)-6-oxo-4-(trifluoromethyl)-1,6-dihydropyridine-3-carboxamide] | 4.2 | 4 | 7.2 | 607
7 | CN1CCN(c2ccc(-c3cc(CNC4CCC(F)(F)CC4)ccc3F)cc2NC(=O)c2c[nH]c(=O)cc2C(F)(F)F)CC1 [Example 42, N-(5′-(((4,4-difluorocyclohexyl)amino)methyl)-2′-fluoro-4-(4-methylpiperazin-1-yl)-[1,1′-biphenyl]-3-yl)-6-oxo-4-(trifluoromethyl)-1,6-dihydropyridine-3-carboxamide] | 5 | 5 | 4.43 | 2280
8 | CC1CN(c2ccc(-c3cc(C(=O)NC4CCCCC4)ccc3F)cc2NC(=O)c2c[nH]c(=O)cc2C(F)(F)F)CC(C)N1C (centres unmarked) [Example 124, N-(5′-(cyclohexylcarbamoyl)-2′-fluoro-4-(3,4,5-trimethylpiperazin-1-yl)-[1,1′-biphenyl]-3-yl)-6-oxo-4-(trifluoromethyl)-1,6-dihydropyridine-3-carboxamide] | 1.7 | 1.7 | 20.6 | 293
